Measurements as given in ChEMBL document CHEMBL5257126, “Moderately lipophilic 2-(Het)aryl-6-dithioacetals, 2-phenyl-1,4-benzodioxane-6-dithioacetals and 2-phenylbenzofuran-5-dithioacetals: Synthesis and primary evaluation as potential antidiabetic AMPK-activators” (Bioorg Med Chem, 2023).

Tests used:
Type in all cases: functional
L6 [1] = assay: Induction of glucose uptake in rat L6 cells assessed as fold increase by measuring 2-NBDG uptake at 25 uM preincubated in high glucose medium for 48 hrs followed by compound addition and measured after 24 hrs
L6 [2] = assay: Induction of glucose uptake in rat L6 cells assessed as fold increase by measuring 2-NBDG uptake at 2.5 uM preincubated in high glucose medium for 48 hrs followed by compound addition and measured after 24 hrs
L6 [3] = assay: Induction of glucose uptake in rat L6 cells assessed as fold increase by measuring 2-NBDG uptake at 0.25 uM preincubated in high glucose medium for 48 hrs followed by compound addition and measured after 24 hrs

SMILES	fold change (FC) (L6 [1])	fold change (FC) (L6 [2])	fold change (FC) (L6 [3])
OCCSC(SCCO)c1ccc2c(c1)CCC(c1cccnc1)O2 (stereo not given)	1.9	1.7	1.4
O[C@H]1CS[C@@H](c2ccc3c(c2)CCC(c2ccccc2)O3)SC1 (stereo not given in full)	1	1	1.1
c1coc(C2CCc3cc(C4SCCCS4)ccc3O2)c1 (stereo not given)	1.2	1	1
OCCSC(SCCO)c1ccc2c(c1)CCC(c1ccccc1)O2 (stereo not given)	1.5	1	1
OCCOCCSC(SCCOCCO)c1ccc2c(c1)CCC(c1ccccc1)O2 (stereo not given)	1.1	1.1	1
O[C@H]1CS[C@H](c2ccc3c(c2)CCC(c2ccccc2)O3)SC1 (stereo not given in full)	1	0.9	1.1
CC(C)(C)OC(=O)NCCSC(SCCNC(=O)OC(C)(C)C)c1ccc2c(c1)CCC(c1ccccc1)O2 (stereo not given)	1	1	1
c1ccc(-c2cc3cc(C4SCCCS4)ccc3o2)cc1	1.2	1	1
OCCSC(SCCO)c1ccc2c(c1)CCC(c1ccco1)O2 (stereo not given)	1.5	1	1.1
OCCSC(SCCO)c1ccc2c(c1)OCC(c1ccccc1)O2 (stereo not given)	1.7	1.2	1.1
